Assay results from US4684664A, “Derivatives of β-(4-isocyano-1,2,3,4-diepoxycyclopentyl) acrylic acid” (Kureha Kagaku Kogyo Kabushiki Kaisha, priority 1984, dated 1987).
≈ marks a conversion by molar mass, not a printed value.

Legend:
Type in all cases: cell-based
[1] = tested on: Staphylococcus aureus FDA 209PJc-1; test: Antibacterial activity, agar-dilution MIC, organism No. 1; conditions: Staphylococcus aureus, FDA209PJC1; Organism No. 1, bouillon-agar; read-out: Minimum Inhibitory Concentration
Description: (§1) Agar-dilution method was used for determination of the antibacterial activity and antifungal activity while using bouillon-agar culture medium, and the minimum inhibitory concentration of the specimen was expressed by μg/ml of the culture medium.

[2] = tested on: Staphylococcus aureus Terajima; test: Antibacterial activity, agar-dilution MIC, organism No. 2; conditions: Staphylococcus aureus; Organism No. 2, bouillon-agar; read-out: Minimum Inhibitory Concentration
Description: as §1

[3] = tested on: Staphylococcus aureus MS 353; test: Antibacterial activity, agar-dilution MIC, organism No. 3; conditions: Staphylococcus aureus, MS353; Organism No. 3, bouillon-agar; read-out: Minimum Inhibitory Concentration
Description: as §1

[4] = tested on: Streptococcus pyogenes Cook; test: Antibacterial activity, agar-dilution MIC, organism No. 4; conditions: Streptococcus pyogenes; Organism No. 4, bouillon-agar; read-out: Minimum Inhibitory Concentration
Description: as §1

[5] = tested on: Escherichia coli NIHJ-JC-2; test: Antibacterial activity, agar-dilution MIC, organism No. 5; conditions: Escherichia coli, NIHJJC2; Organism No. 5, bouillon-agar; read-out: Minimum Inhibitory Concentration
Description: as §1

[6] = tested on: Escherichia coli K12 C600 IAM 1264; test: Antibacterial activity, agar-dilution MIC, organism No. 6; conditions: Escherichia coli, IAM1264; Organism No. 6, bouillon-agar; read-out: Minimum Inhibitory Concentration
Description: as §1

[7] = tested on: Klebsiella pneumoniae PCI-602; test: Antibacterial activity, agar-dilution MIC, organism No. 7; conditions: Klebsiella pneumoniae, PCI602; Organism No. 7, bouillon-agar; read-out: Minimum Inhibitory Concentration
Description: as §1

[8] = tested on: Salmonella typhimurium IID 971; test: Antibacterial activity, agar-dilution MIC, organism No. 8; conditions: Salmonella enterica; Organism No. 8, bouillon-agar; read-out: Minimum Inhibitory Concentration
Description: as §1

Salmonella typhi 901 = test: Antibacterial activity, agar-dilution MIC, organism No. 9; conditions: Salmonella enterica, TYPHI, read-out: Minimum Inhibitory Concentration
Description: as §1

[9] = tested on: Salmonella paratyphi-A 1015; test: Antibacterial activity, agar-dilution MIC, organism No. 10; conditions: Salmonella enterica, PARATYPHI, read-out: Minimum Inhibitory Concentration
Description: as §1

[10] = tested on: Salmonella shottmuelleri 8006; test: Antibacterial activity, agar-dilution MIC, organism No. 11; conditions: Salmonella, 8006; Organism No. 11, bouillon-agar; read-out: Minimum Inhibitory Concentration
Description: as §1

[11] = tested on: Salmonella enteritidis G 14; test: Antibacterial activity, agar-dilution MIC, organism No. 12; conditions: Salmonella enterica, ENTERITIDIS; Organism No. 12, bouillon-agar; read-out: Minimum Inhibitory Concentration
Description: as §1

[12] = tested on: Bacillus subtilis ATCC 6633; test: Antibacterial activity, agar-dilution MIC, organism No. 14; conditions: Bacillus subtilis, ATCC6633; Organism No. 14, bouillon-agar; read-out: Minimum Inhibitory Concentration
Description: as §1

[13] = tested on: Pseudomonas aeruginosa IFO 3445; test: Antibacterial activity, agar-dilution MIC, organism No. 15; conditions: Pseudomonas aeruginosa, IFO3445; Organism No. 15, bouillon-agar; read-out: Minimum Inhibitory Concentration
Description: as §1

[14] = tested on: Pseudomonas aeruginosa NCTC 10490; test: Antibacterial activity, agar-dilution MIC, organism No. 16; conditions: Pseudomonas aeruginosa, NCTC10490; Organism No. 16, bouillon-agar; read-out: Minimum Inhibitory Concentration
Description: as §1

[15] = tested on: Pseudomonas aeruginosa PAO 1; test: Antibacterial activity, agar-dilution MIC, organism No. 17; conditions: Pseudomonas aeruginosa, PAO1; Organism No. 17, bouillon-agar; read-out: Minimum Inhibitory Concentration
Description: as §1

[16] = tested on: Proteus morganii IFO 3848; test: Antibacterial activity, agar-dilution MIC, organism No. 18; conditions: Morganella morganii, IFO3848; Organism No. 18, bouillon-agar; read-out: Minimum Inhibitory Concentration
Description: as §1

[17] = tested on: Proteus mirabilis IFO 3849; test: Antibacterial activity, agar-dilution MIC, organism No. 19; conditions: Proteus mirabilis, IFO3849; Organism No. 19, bouillon-agar; read-out: Minimum Inhibitory Concentration
Description: as §1

Proteus vulgaris OX-19 = test: Antibacterial activity, agar-dilution MIC, organism No. 20; conditions: Proteus vulgaris, OX19; Organism No. 20, bouillon-agar; read-out: Minimum Inhibitory Concentration
Description: as §1

Proteus vulgaris HX-19 = test: Antibacterial activity, agar-dilution MIC, organism No. 21; conditions: Proteus vulgaris, HX19; Organism No. 21, bouillon-agar; read-out: Minimum Inhibitory Concentration
Description: as §1

[18] = tested on: Proteus rettgeri IFO 3850; test: Antibacterial activity, agar-dilution MIC, organism No. 22; conditions: Providencia rettgeri, IFO3850; Organism No. 22, bouillon-agar; read-out: Minimum Inhibitory Concentration
Description: as §1

[19] = tested on: Enterobacter aerogenes ATCC 13048; test: Antibacterial activity, agar-dilution MIC, organism No. 23; conditions: Klebsiella aerogenes, ATCC13048; Organism No. 23, bouillon-agar; read-out: Minimum Inhibitory Concentration
Description: as §1

Enterobacter cloacae 963 = test: Antibacterial activity, agar-dilution MIC, organism No. 24; conditions: Enterobacter cloacae, 963; Organism No. 24, bouillon-agar; read-out: Minimum Inhibitory Concentration
Description: as §1

[20] = tested on: Micrococcus luteus ATCC 9341; test: Antibacterial activity, agar-dilution MIC, organism No. 25; conditions: Micrococcus luteus, ATCC9341; Organism No. 25, bouillon-agar; read-out: Minimum Inhibitory Concentration
Description: as §1

[21] = tested on: Streptococcus pyogenes IFO 3340; test: Antibacterial activity, agar-dilution MIC, organism No. 26; conditions: Streptococcus pyogenes, IFO3340; Organism No. 26, bouillon-agar; read-out: Minimum Inhibitory Concentration
Description: as §1

[22] = tested on: Streptococcus faecium IFO 3826; test: Antibacterial activity, agar-dilution MIC, organism No. 27; conditions: Enterococcus faecium, IFO3826; Organism No. 27, bouillon-agar; read-out: Minimum Inhibitory Concentration
Description: as §1

[23] = tested on: Mycoplasma pneumoniae IID817; test: Antimycoplasmal activity, MIC by phenol red colour change, organism No. 28; conditions: Mycoplasma, IID817; Organism No. 28, PPLO broth + 1% glucose, 37° C.; read-out: Minimum Inhibitory Concentration (MIC)
Method: Mycoplasma pneumoniae IID817 was used as the test microorganism in a culture medium prepared by adding 1% of glucose to "PPLO broth (manufactured by Difco Co.) liquid culture medium" at 37° C. with phenol red as an indicator, thereby culturing the test microorganism.

[24] = tested on: Candida albicans IAM 4905; test: Antifungal activity, agar-dilution MIC, organism No. 29; conditions: Candida albicans, IAM4905; Organism No. 29, bouillon-agar; read-out: Minimum Inhibitory Concentration
Description: as §1

[25] = tested on: Aspergillus niger IFO 6342; test: Antifungal activity, agar-dilution MIC, organism No. 30; conditions: Aspergillus niger, IFO6342; Organism No. 30, bouillon-agar; read-out: Minimum Inhibitory Concentration
Description: as §1

SMILES	MIC [1] [µg/mL]	MIC [2] [µg/mL]	MIC [3] [µg/mL]	MIC [4] [µg/mL]	MIC [5] [µg/mL]	MIC [6] [µg/mL]	MIC [7] [µg/mL]	MIC [8] [µg/mL]	MIC (Salmonella typhi 901) [µg/mL]	MIC [9] [µg/mL]	MIC [10] [µg/mL]	MIC [11] [µg/mL]	MIC [12] [µg/mL]	MIC [13] [µg/mL]	MIC [14] [µg/mL]	MIC [15] [µg/mL]	MIC [16] [µg/mL]	MIC [17] [µg/mL]	MIC (Proteus vulgaris OX-19) [µg/mL]	MIC (Proteus vulgaris HX-19) [µg/mL]	other results
[C-]#[N+]C12CC3(/C=C/C(=O)N(C(=O)NC4CCCCC4)C4CCCCC4)OC3C1O2 (stereo not shown) [Compound No. 25]	0.1 (≈ 0.25 µM)	0.78 (≈ 1.95 µM)	0.78 (≈ 1.95 µM)	1.56 (≈ 3.9 µM)	12.5 (≈ 31.3 µM)	6.25 (≈ 15.6 µM)	100 (≈ 250 µM)	100 (≈ 250 µM)	100 (≈ 250 µM)	0.1 (≈ 0.25 µM)	0.1 (≈ 0.25 µM)	100 (≈ 250 µM)	0.39 (≈ 0.976 µM)	> 100	> 100	> 100	> 100	> 200	25 (≈ 62.6 µM)	0.1 (≈ 0.25 µM)	MIC [18]: > 200 µg/mL; MIC [19]: > 100 µg/mL; MIC (Enterobacter cloacae 963): 50 µg/mL (≈ 125 µM); MIC [20]: < 0.05 µg/mL; MIC [21]: 6.25 µg/mL (≈ 15.6 µM); MIC [22]: 6.25 µg/mL (≈ 15.6 µM); MIC [23]: 1.56 µg/mL; MIC [24]: 3.13 µg/mL (≈ 7.83 µM); MIC [25]: 6.25 µg/mL (≈ 15.6 µM)
[C-]#[N+]C12CC3(/C=C/C(=O)N[C@@H](CCC(=O)OC)C(=O)OC)OC3C1O2 (stereo partly shown) [Compound No. 26]	25 (≈ 71.4 µM)	100 (≈ 285 µM)	25 (≈ 71.4 µM)	50 (≈ 143 µM)	100 (≈ 285 µM)	100 (≈ 285 µM)	50 (≈ 143 µM)	100 (≈ 285 µM)	50 (≈ 143 µM)	50 (≈ 143 µM)	50 (≈ 143 µM)	50 (≈ 143 µM)	100 (≈ 285 µM)	> 200	> 200	> 200	100 (≈ 285 µM)	> 200	25 (≈ 71.4 µM)	12.5 (≈ 35.7 µM)	MIC [18]: > 200 µg/mL; MIC [19]: > 200 µg/mL; MIC (Enterobacter cloacae 963): > 200 µg/mL; MIC [20]: 12.5 µg/mL (≈ 35.7 µM); MIC [21]: 50 µg/mL (≈ 143 µM); MIC [22]: > 200 µg/mL; MIC [23]: 1.56 µg/mL; MIC [24]: 100 µg/mL (≈ 285 µM); MIC [25]: 100 µg/mL (≈ 285 µM)
[C-]#[N+]C12CC3(/C=C/C(=O)N[C@@H](CC(=O)OC)C(=O)OC)OC3C1O2 (stereo partly shown) [Compound No. 27]	25 (≈ 74.3 µM)	100 (≈ 297 µM)	25 (≈ 74.3 µM)	50 (≈ 149 µM)	100 (≈ 297 µM)	50 (≈ 149 µM)	25 (≈ 74.3 µM)	100 (≈ 297 µM)	25 (≈ 74.3 µM)	25 (≈ 74.3 µM)	25 (≈ 74.3 µM)	25 (≈ 74.3 µM)	100 (≈ 297 µM)	> 200	> 200	> 200	25 (≈ 74.3 µM)	> 200	25 (≈ 74.3 µM)	12.5 (≈ 37.2 µM)	MIC [18]: > 200 µg/mL; MIC [19]: > 200 µg/mL; MIC (Enterobacter cloacae 963): > 200 µg/mL; MIC [20]: 12.5 µg/mL (≈ 37.2 µM); MIC [21]: 50 µg/mL (≈ 149 µM); MIC [22]: > 200 µg/mL; MIC [23]: > 100 µg/mL; MIC [24]: 100 µg/mL (≈ 297 µM); MIC [25]: > 100 µg/mL
[C-]#[N+]C12CC3(/C=C/C(=O)N[C@@H](CCC(=O)OCc4ccccc4)C(=O)OCc4ccccc4)OC3C1O2 (stereo partly shown) [Compound No. 28]	12.5 (≈ 24.9 µM)	12.5 (≈ 24.9 µM)	12.5 (≈ 24.9 µM)	> 200	> 200	> 200	> 200	> 200	> 200	> 200	> 200	> 200	< 1.56	> 200	> 200	> 200	> 200	> 200	> 200	25 (≈ 49.7 µM)	MIC [18]: > 200 µg/mL; MIC [19]: > 200 µg/mL; MIC (Enterobacter cloacae 963): > 200 µg/mL; MIC [20]: < 1.56 µg/mL; MIC [21]: > 200 µg/mL; MIC [22]: 0.5 µg/mL (≈ 0.995 µM); MIC [23]: > 100 µg/mL; MIC [24]: > 100 µg/mL; MIC [25]: > 100 µg/mL
[C-]#[N+]C12CC3(/C=C/C(=O)N[C@@H](CC(=O)OCc4ccccc4)C(=O)OCc4ccccc4)OC3C1O2 (stereo partly shown) [Compound No. 29]	< 1.56	6.25 (≈ 12.8 µM)	3.13 (≈ 6.41 µM)	> 200	> 200	> 200	> 200	> 200	> 200	> 200	> 200	> 200	25 (≈ 51.2 µM)	> 200	> 200	> 200	> 200	> 200	> 200	25 (≈ 51.2 µM)	MIC [18]: > 200 µg/mL; MIC [19]: > 200 µg/mL; MIC (Enterobacter cloacae 963): > 200 µg/mL; MIC [20]: < 1.56 µg/mL; MIC [21]: > 200 µg/mL; MIC [22]: 6.25 µg/mL (≈ 12.8 µM); MIC [23]: > 100 µg/mL; MIC [24]: > 100 µg/mL; MIC [25]: > 100 µg/mL
